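Assay format: 96-well plates, 48-hour exposure. At the GI50, growth is halved. Definition used: TGI = concentration required for complete inhibition of growth.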
Tests used:
Assay in all cases: growth of human tumour cells (NCI), 48 h
K-562 leukemia = system: K-562 leukemia
RXF 393 renal = system: RXF 393 renal
HCT-15 colon = system: HCT-15 colon
OVCAR-5 ovarian = system: OVCAR-5 ovarian
OVCAR-8 ovarian = system: OVCAR-8 ovarian
SK-MEL-28 melanoma = system: SK-MEL-28 melanoma
SK-MEL-5 melanoma = system: SK-MEL-5 melanoma
NCI-H226 lung = system: NCI-H226 lung
UACC-257 melanoma = system: UACC-257 melanoma
T-47D breast = system: T-47D breast

## CCOC(=O)C(C(O)c1ccc([N+](=O)[O-])cc1)P(=O)(OCC)OCC (stereo not drawn)
K-562 leukemia
  TGI: > 100 µM
RXF 393 renal
  TGI: > 100 µM
HCT-15 colon
  TGI: > 100 µM
OVCAR-5 ovarian
  TGI: > 100 µM
OVCAR-8 ovarian
  TGI: > 100 µM
SK-MEL-28 melanoma
  TGI: > 100 µM
SK-MEL-5 melanoma
  TGI: > 100 µM
NCI-H226 lung
  TGI: > 100 µM

## COC[C@H](C)N=CN1CCc2ccccc2C1(Cc1ccccc1)Cc1ccccc1
K-562 leukemia
  TGI: 29.3 µM
RXF 393 renal
  TGI: 32.7 µM
HCT-15 colon
  TGI: 39.1 µM
OVCAR-8 ovarian
  TGI: 28.8 µM
SK-MEL-28 melanoma
  TGI: 23.6 µM
SK-MEL-5 melanoma
  TGI: > 100 µM
UACC-257 melanoma
  TGI: 28.3 µM
NCI-H226 lung
  TGI: 37 µM

## CN1CCN(Cc2cc(NC(=O)c3cccc(C#Cc4cccc5[nH]nc(N)c45)c3)cc(C(F)(F)F)c2)CC1
RXF 393 renal
  GI50: 1.46 µM
  TGI: 2.83 µM
HCT-15 colon
  GI50: 1.81 µM
  TGI: 3.37 µM
OVCAR-5 ovarian
  GI50: 1.5 µM
  TGI: 2.98 µM
OVCAR-8 ovarian
  GI50: 1.85 µM
  TGI: 3.62 µM
SK-MEL-28 melanoma
  GI50: 1.56 µM
  TGI: 2.94 µM
SK-MEL-5 melanoma
  GI50: 1.7 µM
  TGI: 3.1 µM
UACC-257 melanoma
  GI50: 1.83 µM
  TGI: 3.39 µM

## CCN=C(C#N)NCC
K-562 leukemia
  TGI: > 100 µM
HCT-15 colon
  TGI: > 100 µM
OVCAR-5 ovarian
  TGI: > 100 µM
OVCAR-8 ovarian
  TGI: > 100 µM
SK-MEL-28 melanoma
  TGI: > 100 µM
SK-MEL-5 melanoma
  TGI: > 100 µM
UACC-257 melanoma
  TGI: > 100 µM
NCI-H226 lung
  TGI: > 100 µM

## Cc1ccc(NC(=O)OCC(COc2ccc(Cl)cc2Cl)OC(=O)Nc2ccc(C)cc2)cc1 (stereo not drawn)
RXF 393 renal
  TGI: > 100 µM
HCT-15 colon
  TGI: > 100 µM
OVCAR-5 ovarian
  TGI: > 100 µM
OVCAR-8 ovarian
  TGI: 39.3 µM
SK-MEL-28 melanoma
  TGI: > 100 µM
UACC-257 melanoma
  TGI: > 100 µM
NCI-H226 lung
  TGI: > 100 µM

## CCOC(=O)C(=O)Nc1ccccc1C(C)C
K-562 leukemia
  TGI: > 100 µM
HCT-15 colon
  TGI: > 100 µM
OVCAR-5 ovarian
  TGI: > 100 µM
OVCAR-8 ovarian
  TGI: > 100 µM
SK-MEL-28 melanoma
  TGI: > 100 µM
SK-MEL-5 melanoma
  TGI: > 100 µM
UACC-257 melanoma
  TGI: > 100 µM
NCI-H226 lung
  TGI: > 100 µM

## CCOC1CC2OC(=O)C1C=C2C(=O)OC (stereo not drawn)
K-562 leukemia
  TGI: 83.3 µM
HCT-15 colon
  TGI: > 100 µM
OVCAR-5 ovarian
  TGI: > 100 µM
SK-MEL-28 melanoma
  TGI: 62.8 µM
SK-MEL-5 melanoma
  TGI: > 100 µM
UACC-257 melanoma
  TGI: 74.2 µM
NCI-H226 lung
  TGI: > 100 µM

## CCOCc1cc(=O)c2c(OC)cc3c(c2o1)CCC(C)(C)O3
K-562 leukemia
  TGI: > 100 µM
RXF 393 renal
  TGI: > 100 µM
HCT-15 colon
  TGI: > 100 µM
OVCAR-5 ovarian
  TGI: > 100 µM
OVCAR-8 ovarian
  TGI: > 100 µM
SK-MEL-28 melanoma
  TGI: > 100 µM
SK-MEL-5 melanoma
  TGI: > 100 µM
UACC-257 melanoma
  TGI: > 100 µM

## Cn1cnc([N+](=O)[O-])c1Sc1nccc(=O)[nH]1
K-562 leukemia
  TGI: > 100 µM
OVCAR-5 ovarian
  TGI: > 100 µM
OVCAR-8 ovarian
  TGI: > 100 µM
SK-MEL-28 melanoma
  TGI: > 100 µM
SK-MEL-5 melanoma
  TGI: > 100 µM
UACC-257 melanoma
  TGI: > 100 µM
NCI-H226 lung
  TGI: > 100 µM

## Cc1ccccc1C1CC(c2ccccc2)=NO1 (stereo not drawn)
K-562 leukemia
  TGI: > 100 µM
HCT-15 colon
  TGI: > 100 µM
OVCAR-5 ovarian
  TGI: > 100 µM
OVCAR-8 ovarian
  TGI: > 100 µM
SK-MEL-28 melanoma
  TGI: > 100 µM
SK-MEL-5 melanoma
  TGI: > 100 µM
UACC-257 melanoma
  TGI: > 100 µM
NCI-H226 lung
  TGI: > 100 µM

## CCOP1(=O)C=C(C)C(=C(Cl)Cl)C(C)=C1 (stereo not drawn)
K-562 leukemia
  TGI: 16.3 µM
RXF 393 renal
  TGI: 30.7 µM
HCT-15 colon
  TGI: 36.9 µM
OVCAR-8 ovarian
  TGI: > 100 µM
SK-MEL-28 melanoma
  TGI: > 100 µM
UACC-257 melanoma
  GI50: 11.5 µM
  TGI: 89 µM
NCI-H226 lung
  GI50: 3.44 µM
  TGI: 21.2 µM

## COCCn1cc(-c2csc(-c3c[nH]c4ccc(Br)cc34)n2)c2cccnc21
K-562 leukemia
  GI50: 3.6 µM
  TGI: > 100 µM
RXF 393 renal
  GI50: 3.3 µM
  TGI: 11.2 µM
HCT-15 colon
  GI50: 3.14 µM
  TGI: > 100 µM
OVCAR-5 ovarian
  GI50: 4.83 µM
  TGI: > 100 µM
OVCAR-8 ovarian
  GI50: 5.35 µM
  TGI: > 100 µM
SK-MEL-28 melanoma
  GI50: 4.79 µM
  TGI: > 100 µM
SK-MEL-5 melanoma
  GI50: 3.24 µM
  TGI: 11.7 µM
UACC-257 melanoma
  GI50: 8.69 µM
  TGI: 64.2 µM
T-47D breast
  GI50: 1.97 µM
  TGI: 21 µM

## CC(C)C1N2CCCCC2[C@@H]2c3[nH]c4ccccc4c3CCN12 (stereo partly drawn)
K-562 leukemia
  TGI: > 100 µM
RXF 393 renal
  TGI: > 100 µM
HCT-15 colon
  TGI: > 100 µM
OVCAR-5 ovarian
  TGI: > 100 µM
OVCAR-8 ovarian
  TGI: > 100 µM
SK-MEL-28 melanoma
  TGI: > 100 µM
SK-MEL-5 melanoma
  TGI: > 100 µM
UACC-257 melanoma
  TGI: > 100 µM

## Cc1ccc(S(=O)(=O)Nc2ccc(-c3cc(-c4cccc(F)c4)c(C#N)c(N)n3)cc2)cc1
K-562 leukemia
  GI50: 2.63 µM
  TGI: > 100 µM
RXF 393 renal
  GI50: 1.44 µM
  TGI: 2.79 µM
HCT-15 colon
  GI50: 1.88 µM
  TGI: 4.86 µM
OVCAR-5 ovarian
  GI50: 1.73 µM
  TGI: 3.46 µM
OVCAR-8 ovarian
  GI50: 2.43 µM
  TGI: 7.83 µM
SK-MEL-28 melanoma
  GI50: 1.96 µM
  TGI: 4.08 µM
SK-MEL-5 melanoma
  GI50: 1.77 µM
  TGI: 3.23 µM
UACC-257 melanoma
  GI50: 1.93 µM
  TGI: 4.24 µM
T-47D breast
  GI50: 1.48 µM
  TGI: 3.66 µM

## CCC[CH2][Pb]([Cl])([CH2]CCC)[CH2]CCC
K-562 leukemia
  GI50: 0.0277 µM
  TGI: 0.931 µM
RXF 393 renal
  GI50: 0.0231 µM
  TGI: 0.0635 µM
HCT-15 colon
  GI50: 0.0195 µM
  TGI: 0.0487 µM
OVCAR-5 ovarian
  GI50: 0.034 µM
  TGI: 0.134 µM
OVCAR-8 ovarian
  GI50: 0.0206 µM
  TGI: 0.0464 µM
SK-MEL-28 melanoma
  GI50: 0.0276 µM
  TGI: 0.0792 µM
SK-MEL-5 melanoma
  GI50: 0.0534 µM
  TGI: 0.128 µM
UACC-257 melanoma
  GI50: 0.0589 µM
  TGI: 0.157 µM
T-47D breast
  GI50: 0.0181 µM
  TGI: 0.0383 µM

## COC(=O)/C(=N\NC(N)=O)C(C(=O)C=C(C)C)C(=O)C(=O)Nc1ccc(Cl)c(Cl)c1 (stereo not drawn)
K-562 leukemia
  TGI: > 100 µM
RXF 393 renal
  TGI: > 100 µM
HCT-15 colon
  TGI: > 100 µM
OVCAR-5 ovarian
  TGI: > 100 µM
OVCAR-8 ovarian
  TGI: > 100 µM
SK-MEL-28 melanoma
  TGI: > 100 µM
SK-MEL-5 melanoma
  TGI: > 100 µM
UACC-257 melanoma
  TGI: > 100 µM
NCI-H226 lung
  TGI: > 100 µM

## COc1cc(/C=C2\C[C@H]3[C@@H]4CC=C5C[C@@H](OC(C)=O)CC[C@]5(C)[C@H]4CC[C@]3(C)[C@H]2OC(C)=O)ccc1OCCN1CCCC1
K-562 leukemia
  GI50: 4 µM
  TGI: 12.6 µM
RXF 393 renal
  GI50: 14.6 µM
  TGI: 30.8 µM
OVCAR-5 ovarian
  GI50: 10 µM
  TGI: 20.1 µM
OVCAR-8 ovarian
  GI50: 10.3 µM
  TGI: 21.4 µM
SK-MEL-28 melanoma
  GI50: 12.8 µM
  TGI: > 50 µM
SK-MEL-5 melanoma
  GI50: 6.97 µM
  TGI: 15.1 µM
UACC-257 melanoma
  GI50: 10.8 µM
  TGI: 20.1 µM
T-47D breast
  GI50: 12.4 µM
  TGI: 32 µM
NCI-H226 lung
  GI50: 9.67 µM
  TGI: 18.6 µM

## CC1CC[P+](c2ccccc2)(c2ccccc2)CC1
K-562 leukemia
  TGI: > 100 µM
RXF 393 renal
  TGI: > 100 µM
HCT-15 colon
  TGI: > 100 µM
OVCAR-5 ovarian
  TGI: > 100 µM
OVCAR-8 ovarian
  TGI: > 100 µM
SK-MEL-28 melanoma
  TGI: > 100 µM
SK-MEL-5 melanoma
  TGI: 51.1 µM
UACC-257 melanoma
  TGI: > 100 µM
NCI-H226 lung
  TGI: > 100 µM

## CCCCN(CCCC)CCCn1cnc2ncccc2c1=O
K-562 leukemia
  TGI: > 100 µM
RXF 393 renal
  TGI: > 100 µM
OVCAR-5 ovarian
  TGI: > 100 µM
OVCAR-8 ovarian
  TGI: > 100 µM
SK-MEL-28 melanoma
  TGI: > 100 µM
SK-MEL-5 melanoma
  TGI: > 100 µM
NCI-H226 lung
  TGI: > 100 µM

## C/C(=N\NC(=O)CC(=O)N(C(=O)c1ccc(Cl)cc1)c1ccc(C)cc1)c1ccccc1O
K-562 leukemia
  TGI: > 100 µM
RXF 393 renal
  TGI: > 100 µM
HCT-15 colon
  TGI: > 100 µM
OVCAR-5 ovarian
  TGI: > 100 µM
OVCAR-8 ovarian
  TGI: > 100 µM
SK-MEL-28 melanoma
  TGI: > 100 µM
SK-MEL-5 melanoma
  TGI: > 100 µM
UACC-257 melanoma
  TGI: > 100 µM
NCI-H226 lung
  TGI: > 100 µM

## C1C[OH+]CC[OH+]CCNCC[OH+]CC[OH+]CCN1.Cl.[Cl-].[Pt+4]
K-562 leukemia
  GI50: > 100 µM
  TGI: > 100 µM
RXF 393 renal
  GI50: 1.66 µM
  TGI: 4.13 µM
HCT-15 colon
  GI50: > 100 µM
  TGI: > 100 µM
OVCAR-8 ovarian
  GI50: > 100 µM
  TGI: > 100 µM
SK-MEL-28 melanoma
  GI50: > 100 µM
  TGI: > 100 µM
SK-MEL-5 melanoma
  GI50: > 100 µM
  TGI: > 100 µM

From PubChem BioAssay (NCI)
